Measured values taken from patent US20010007679A1, “(S,R) FORMOTEROL METHODS AND COMPOSITIONS” (priority 1999, published 2001).

Tests used:
[1] = molecular target: human β1-adrenergic receptor (Homo sapiens, UniProt P08588); experiment: Second series: binding competition, human β1; settings: for IC50: IC50 (nM) β1, Second series (human)
[2] = molecular target: human β2-adrenergic receptor (Homo sapiens, UniProt P07550); experiment: Second series: binding competition, human β2; settings: for IC50: IC50 (nM) β2, Second series (human); for β2 Selectivity (β1/β2): Second series (human)
human β2-adrenergic receptor, sequence (P07550 whole entry): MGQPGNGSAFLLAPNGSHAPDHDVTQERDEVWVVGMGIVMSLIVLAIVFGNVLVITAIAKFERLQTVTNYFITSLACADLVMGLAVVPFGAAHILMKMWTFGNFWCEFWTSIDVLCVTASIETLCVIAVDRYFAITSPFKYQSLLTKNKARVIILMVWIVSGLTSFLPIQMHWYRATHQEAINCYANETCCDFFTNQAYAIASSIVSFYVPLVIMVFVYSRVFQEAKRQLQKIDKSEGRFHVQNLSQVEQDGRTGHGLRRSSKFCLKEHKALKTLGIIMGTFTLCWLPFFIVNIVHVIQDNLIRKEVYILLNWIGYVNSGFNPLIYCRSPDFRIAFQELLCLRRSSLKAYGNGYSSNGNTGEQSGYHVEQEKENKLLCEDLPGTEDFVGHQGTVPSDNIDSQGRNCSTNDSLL
Description: (R,S)- and (S,R)-desformoterol were screened, in duplicate at three concentrations (10^−9, 10^−7, 10^−5 M), for binding to human β1 and β2-adrenergic receptors. Compounds that inhibited specific binding ≧50% were then tested further at ten concentrations in duplicate in order to obtain full competition curves. Reference compounds were simultaneously tested at eight concentrations.

BEAS-2B cells = experiment: Intrinsic activity: cAMP production by radioimmunoassay; type: cell-based; settings: 100-times the Kd concentration, relative to isoproterenol (set to 1.0)
Description: The assessment of intrinsic activity was evaluated in BEAS-2B cells grown to confluence. […] Samples were assayed for cAMP by radioimmunoassay.

human β1-adrenergic receptor, sequence (P08588 whole entry): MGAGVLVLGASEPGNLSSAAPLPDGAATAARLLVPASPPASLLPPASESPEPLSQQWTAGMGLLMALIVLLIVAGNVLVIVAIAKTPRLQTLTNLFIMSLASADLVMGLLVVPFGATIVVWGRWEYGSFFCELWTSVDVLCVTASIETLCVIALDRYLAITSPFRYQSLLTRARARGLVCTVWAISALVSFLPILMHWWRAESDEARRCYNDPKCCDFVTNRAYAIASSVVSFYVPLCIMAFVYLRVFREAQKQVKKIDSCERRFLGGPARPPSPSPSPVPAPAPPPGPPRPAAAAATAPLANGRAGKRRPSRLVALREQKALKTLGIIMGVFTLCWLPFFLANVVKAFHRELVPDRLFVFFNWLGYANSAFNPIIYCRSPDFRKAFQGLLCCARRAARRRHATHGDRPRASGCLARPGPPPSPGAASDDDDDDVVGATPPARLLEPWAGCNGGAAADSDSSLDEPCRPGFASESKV

COc1ccc(CC(C)NCC(O)c2ccc(O)c(N)c2)cc1 (single isomer, unassigned) [(R,R)-Desformoterol, 3-Amino-4-hydroxy-α-[[[2-(4-methoxyphenyl)-1-methylethyl]amino]methyl]-benzenemethanol]
IC50 [1]: 3180 nM | IC50 [2]: 35.6 nM | β2 Selectivity (β1/β2) [2]: 89

COc1ccc(CC(C)NCC(O)c2ccc(O)c(N)c2)cc1 (single isomer, unassigned) [(R,S)-Desformoterol, 3-Amino-4-hydroxy-α-[[[2-(4-methoxyphenyl)-1-methylethyl]amino]methyl]-benzenemethanol]
IC50 [1]: 1790 nM | IC50 [2]: 3140 nM | β2 Selectivity (β1/β2) [2]: 0.6

COc1ccc(CC(C)NCC(O)c2ccc(O)c(N)c2)cc1 (single isomer, unassigned) [(S,S)-Desformoterol, 3-Amino-4-hydroxy-α-[[[2-(4-methoxyphenyl)-1-methylethyl]amino]methyl]-benzenemethanol]
IC50 [1]: 64700 nM | IC50 [2]: > 10000 nM

CC(C)(C)NC[C@H](O)c1ccc(O)c(CO)c1 [(R)-Albuterol]
Intrinsic Activity (cAMP) (BEAS-2B cells): 0.44

COc1ccc(CC(C)NCC(O)c2ccc(O)c(N)c2)cc1 [(R,R/S,S)-Desformoterol, 3-Amino-4-hydroxy-α-[[[2-(4-methoxyphenyl)-1-methylethyl]amino]methyl]-benzenemethanol]
IC50 [1]: 5140 nM | IC50 [2]: 81.3 nM | β2 Selectivity (β1/β2) [2]: 63

COc1ccc(C[C@@H](C)NCC(O)c2ccc(O)c(N)c2)cc1 (stereo partly drawn) [(S,R)-Desformoterol, 3-Amino-4-hydroxy-α-[[[2-(4-methoxyphenyl)-1-methylethyl]amino]methyl]-benzenemethanol]
inhibition at 10 µM ([1]; read-out: inhibition of specific binding at β1): 22% | IC50 [2]: 1830 nM

CC(C)NCC(O)c1ccc(O)c(O)c1 (stereo not drawn) [Isoproterenol]
Intrinsic Activity (cAMP) (BEAS-2B cells): 1.00
